Assay results reported in paper PMC4767496 (Oncotarget, 2015).

What was measured:
metastatic melanoma = conditions: 38 or 120 patients, phase 3 trial, metastatic melanoma progressed after ipilimumab; cited from earlier work
[1] = Plasma pharmacokinetics of lenvatinib; conditions: human, in vivo
Experimental: Tmax, Cmax, Ctrough, AUC0-t, CL (total body clearance from plasma), Vss (volume of distribution at steady […]), and t1/2 were evaluated.
Baseline and demographic variables including age, gender, race, height, weight, and ECOG performance score were summarized using descriptive statistics. […] Pearson and Spearman correlation coefficients were calculated between pharmacokinetic parameters and serum biomarkers at different time points compared with baseline to examine the correlation between drug exposure and biomarkers. Univariate and multivariate Cox proportional hazards models and log-rank tests were used to examine the relationship between PFS and baseline (and change from baseline) concentrations in angiogenesis and apoptosis biomarkers. Cumulative chi-square test was used to examine the correlation between mutation/serum biomarkers and best overall response. Pearson and Spearman correlation coefficients were also calculated between percent MTS (defined as percent change in sum of longest diameter from baseline to nadir using RECIST criteria) and serum biomarkers at different time points compared with baseline.

solid-tumor patients = conditions: phase 1 studies; cited from earlier work

Compound	Objective response rate (metastatic melanoma) [%]	AUC(0-t) ([1]; Geometric mean (%CV), DL1 lenvatinib 20 mg + TMZ 100 mg/m2, Cycle 1/Day 1, n = 6) [ng·h/mL]	AUC(0-t) ([1]; Geometric mean (%CV), DL1 lenvatinib 20 mg + TMZ 100 mg/m2, Cycle 2/Day 1, n = 4) [ng·h/mL]	AUC(0-t) ([1]; Mean (SD), DL3 lenvatinib 24 mg + TMZ 150 mg/m2, Cycle 1/Day 1, n = 22) [ng·h/mL]	AUC(0-t) ([1]; Mean (SD), DL3 lenvatinib 24 mg + TMZ 150 mg/m2, Cycle 2/Day 1, n = 18) [ng·h/mL]	Tmax ([1]; Median tmax, range across the cohorts) [h]	Maximum tolerated dose (MTD) (solid-tumor patients) [mg/day]
nivolumab: anti-PD1 receptor immune checkpoint inhibitor monoclonal antibody	31.7	–	–	–	–	–	–
COc1cc2nccc(Oc3ccc(NC(=O)NC4CC4)c(Cl)c3)c2cc1C(N)=O [Lenvatinib]	–	3120	4120	3940	4740	1 to 8	25
